Data reported in publication PMC6336804, “Identification of selective inhibitors of Helicobacter pylori IMPDH as a targeted therapy for the infection” (Scientific Reports, 2019).
Read-outs that look alike come from different tables or passages of the source.

Assays:
HpIMPDH [1] = biological target: T1, HpIMPDH (Helicobacter pylori, UniProt P56088); test: HpIMPDH enzyme inhibition assay (NADH fluorescence); format: biochemical
T1 construct: His tag; made in house; host or cells: E. coli Rosetta(DE3) pLysS, pET-28a(+)
T1 sequence (P56088 whole entry): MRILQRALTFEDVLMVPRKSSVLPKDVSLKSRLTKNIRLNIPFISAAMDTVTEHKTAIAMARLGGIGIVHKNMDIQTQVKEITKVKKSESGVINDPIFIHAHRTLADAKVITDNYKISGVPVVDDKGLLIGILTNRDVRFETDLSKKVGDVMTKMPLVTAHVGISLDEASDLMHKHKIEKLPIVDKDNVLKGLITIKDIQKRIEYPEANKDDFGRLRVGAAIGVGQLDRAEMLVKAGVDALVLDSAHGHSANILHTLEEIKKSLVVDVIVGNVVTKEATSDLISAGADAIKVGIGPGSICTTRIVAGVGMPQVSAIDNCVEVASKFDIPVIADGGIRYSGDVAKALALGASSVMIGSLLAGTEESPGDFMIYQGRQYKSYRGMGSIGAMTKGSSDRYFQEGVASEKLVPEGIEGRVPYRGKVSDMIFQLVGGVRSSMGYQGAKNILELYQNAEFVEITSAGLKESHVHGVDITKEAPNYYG
Method: To calculate the IC50 values, the initial velocity of the reaction is plotted against concentrations of the small molecule inhibitor, and the data is fitted with the Hill equation.
Similar to enzyme kinetic studies, these were also determined by monitoring NADH concentration through the fluorescence measurement. In the presence of IMPDH inhibitor, decreased catalytic activity of the enzyme reduces the formation of NADH. […] The production of NADH was monitored by measuring fluorescence at 440 nm when excited at 340 nm using PerkinElmer EnVision Multilabel Reader (Perkin Elmer, Inc., MA, USA) at 37 °C. In these assays C91 was used as a positive control.
IC50 values for all compounds were calculated with the help of software GraphPad Prism. The equation applied was:2 Y=Bottom+(Top−Bottom)/1+10^((LogIC50−X)∗HillSlope)

HpIMPDH [2] = biological target: T1, HpIMPDH; test: Mechanism of HpIMPDH inhibition, kinetic studies with varying IMP or NAD+ (Lineweaver-Burk); format: biochemical; settings: for Conclusion: type of inhibition versus IMP / Conclusion: type of inhibition versus NAD+: Table S4
Description: There are three important mechanisms of enzyme inhibition, viz. competitive, non-competitive and uncompetitive inhibition. […] The initial velocity data were plotted using Lineweaver-Burk equation using GraphPad Prism.
The data is plotted using the Lineweaver-Burk equation.

HpIMPDH [3] = biological target: T1, HpIMPDH; format: biochemical; settings: 100 nM enzyme
Description: Before carrying out enzymatic assays, it is important to determine the enzyme activity.
The initial velocity data was fitted using Michaelis–Menten equation (1) with the help of GraphPad Prism to calculate enzyme kinetic parameters.1 V=Vmax[S]/KM+[S] where, V is velocity, Vmax is maximum velocity, [S] is substrate concentration, KM is Michaelis–Menten constant.

HpIMPDH [4] = biological target: T1, HpIMPDH; set-up: method as in ref 3 (a number printed in a supplementary file, which may have a reference list of its own: not looked up in the article's list); settings: previously reported HpIMPDH data ref 3; cited from earlier work
HsIMPDH-I = test system: HsIMPDH-I; set-up: method as in ref 4 (a number printed in a supplementary file, which may have a reference list of its own: not looked up in the article's list); settings: HsIMPDH-I ref 4; cited from earlier work
HsIMPDH-II = test system: HsIMPDH-II; set-up: method as in ref 4 (a number printed in a supplementary file, which may have a reference list of its own: not looked up in the article's list); settings: HsIMPDH-II ref 4; cited from earlier work
AgIMPDH = test system: AgIMPDH; set-up: method as in ref 5 (a number printed in a supplementary file, which may have a reference list of its own: not looked up in the article's list); settings: AgIMPDH ref 5; cited from earlier work
CpIMPDH = test system: CpIMPDH; set-up: method as in ref 8 (a number printed in a supplementary file, which may have a reference list of its own: not looked up in the article's list); settings: CpIMPDH ref 8; cited from earlier work
SpIMPDH = test system: SpIMPDH; set-up: method as in ref 9 (a number printed in a supplementary file, which may have a reference list of its own: not looked up in the article's list); settings: SpIMPDH ref 9; cited from earlier work
BbIMPDH = test system: BbIMPDH; set-up: method as in ref 10 (a number printed in a supplementary file, which may have a reference list of its own: not looked up in the article's list); settings: BbIMPDH ref 10; cited from earlier work
TfIMPDH = TfIMPDH ref 6; cited from earlier work
PaIMPDH = PaIMPDH ref 7; cited from earlier work
[5] = IC50, HpIMPDH inhibition, 100 nM HpIMPDH, NAD+ 300 µM, IMP 250 µM

Compound	IC50 value (in words) (HpIMPDH [1]; HpIMPDH)	IC50 (HpIMPDH [1]; [5]) [µM]	IC50 (HpIMPDH [1]; IC50, inhibition profile of indole based compounds, Table S3) [µM]	Mechanism of HpIMPDH inhibition against both IMP and NAD+ (HpIMPDH [2])	Conclusion: type of inhibition versus IMP (HpIMPDH [2])	Conclusion: type of inhibition versus NAD+ (HpIMPDH [2])	kcat of HpIMPDH for the substrate (HpIMPDH [3]) [S^−1]	Km (HpIMPDH [3]; varying NAD+, IMP 500 µM constant) [µM]	Km (HpIMPDH [4]) [µM]	Km (HsIMPDH-I) [µM]	Km (HsIMPDH-II) [µM]	Km (AgIMPDH) [µM]	Km (CpIMPDH) [µM]	Km (SpIMPDH) [µM]	Km (BbIMPDH) [µM]	Km (TfIMPDH) [µM]	Km (PaIMPDH) [µM]
O=C(Cn1cc(C(=O)Nc2cccnc2)c2ccccc21)Nc1ccc(Br)cc1 [Compound 2]	micromolar range	1.89 ± 0.42	1.88	noncompetitive inhibition	Non-competitive inhibition	Non-competitive inhibition	–	–	–	–	–	–	–	–	–	–	–
O=C(Cn1c(-c2ccccn2)nc2ccccc21)Nc1ccc2ccccc2c1 [Compound 1, reference compound]	–	0.155 ± 0.082	–	uncompetitive	Un-competitive inhibition	Un-competitive inhibition	–	–	–	–	–	–	–	–	–	–	–
NC(=O)c1ccc[n+]([C@@H]2O[C@H](COP(=O)([O-])OP(=O)(O)OC[C@H]3O[C@@H](n4cnc5c(N)ncnc54)[C@H](O)[C@@H]3O)[C@@H](O)[C@H]2O)c1 [NAD^+]	–	–	–	–	–	–	5.96 ± 0.53	76.4 ± 1.09	73 ± 6	32 ± 3.4	46 ± 2.8	280 ± 24.7	150 ± 20	1180 ± 400	1100 ± 160	150 ± 30	1760 ± 109
